The source of these data is ChEMBL document CHEMBL1201862, “PubChem BioAssay data set” (2004).

For orientation: AC50 means the concentration at which the activity in the assay is half-maximal. For orientation: EC50 means the concentration giving half of the maximal effect.

Activity calls are given as the source filed them. A value given as a limit tells only on which side of the number the result lay.

Assay [1] can be described thus: blockers of bursicon-stimulated LGR2 cAMP reporter – cell-based, HEK293, CRE-luciferase reporter, cherry pick, set 2, dose response (AID 743343).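 Note: transfected cells were stimulated with diluted bursicon conditioned medium after compound addition.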 The assay is classed as functional.
The nature of assay [2]: blockade of melanocortin 4 receptor signaling – cell-based, plate reader, cherry pick, counter-screen for LGR2 antagonist project, dose response (AID 743444).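 Note: transfected HEK 293 cells stimulated with alpha-MSH peptide; potency of inhibitors of the alpha-MSH evoked signal.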 Type of assay: functional.
Assay [3] deals with T1, Microphthalmia-associated transcription factor (Homo sapiens, UniProt O75030).
T1 sequence (O75030 whole entry): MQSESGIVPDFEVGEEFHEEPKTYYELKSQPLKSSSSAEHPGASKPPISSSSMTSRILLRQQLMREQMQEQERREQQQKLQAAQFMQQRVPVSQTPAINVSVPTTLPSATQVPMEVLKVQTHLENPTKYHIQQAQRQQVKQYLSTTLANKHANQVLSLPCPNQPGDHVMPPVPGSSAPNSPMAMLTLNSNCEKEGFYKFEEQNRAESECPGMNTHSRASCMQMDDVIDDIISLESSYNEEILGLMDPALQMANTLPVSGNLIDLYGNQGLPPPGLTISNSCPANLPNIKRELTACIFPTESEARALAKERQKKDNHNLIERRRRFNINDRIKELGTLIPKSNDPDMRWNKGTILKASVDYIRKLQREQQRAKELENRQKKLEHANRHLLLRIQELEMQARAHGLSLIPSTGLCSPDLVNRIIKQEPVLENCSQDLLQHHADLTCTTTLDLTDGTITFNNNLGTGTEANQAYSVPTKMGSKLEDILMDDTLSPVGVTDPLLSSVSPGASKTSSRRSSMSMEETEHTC
The assay is described as follows: reducers of TRPM1 reporter luminescence, concentration series – cell-based, SK-MEL-5, cherry-picked, set 3, MITF inhibitor project, dose response (AID 493073).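 Note: SK-MEL-5 melanoma cells with luciferase driven by the MITF target TRPM1 promoter.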 Type of assay: functional.

A short description of assay [4]: reduced cellular PGC1a acetyl-lysine signal – cell-based, cherry-picked samples, dose response (AID 720514).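 Note: potency may reflect raised or lowered acetylation signal.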 Type of assay: functional.
The target of assay [5] is T2, Leucine aminopeptidase (Plasmodium falciparum 3D7, UniProt Q8IL11).
T2 sequence (Q8IL11 whole entry): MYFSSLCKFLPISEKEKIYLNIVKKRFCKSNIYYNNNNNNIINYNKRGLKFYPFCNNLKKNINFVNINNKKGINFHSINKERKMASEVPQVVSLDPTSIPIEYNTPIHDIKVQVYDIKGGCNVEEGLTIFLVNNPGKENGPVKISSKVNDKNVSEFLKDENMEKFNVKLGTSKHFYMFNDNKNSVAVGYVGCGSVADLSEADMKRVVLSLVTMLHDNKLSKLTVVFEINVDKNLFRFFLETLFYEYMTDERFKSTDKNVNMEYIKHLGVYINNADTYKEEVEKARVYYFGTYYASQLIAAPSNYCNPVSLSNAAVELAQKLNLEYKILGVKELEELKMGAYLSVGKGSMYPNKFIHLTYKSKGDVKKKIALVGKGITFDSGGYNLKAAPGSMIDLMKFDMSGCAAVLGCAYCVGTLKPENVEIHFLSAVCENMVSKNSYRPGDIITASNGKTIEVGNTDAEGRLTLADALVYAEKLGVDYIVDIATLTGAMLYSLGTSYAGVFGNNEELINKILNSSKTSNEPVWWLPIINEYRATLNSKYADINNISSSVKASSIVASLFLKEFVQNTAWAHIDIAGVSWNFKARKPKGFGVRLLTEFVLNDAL
The experiment in a line: P. falciparum M17LAP inhibitors, primary screen, biochemical, fluorogenic H-Leu-NHMec substrate, 1536-well (AID 1619). The assay is classed as functional.

The target in assay [6] is T3, Protein RecA (Mycobacterium tuberculosis, UniProt P9WHJ3).
T3 sequence (P9WHJ3 whole entry): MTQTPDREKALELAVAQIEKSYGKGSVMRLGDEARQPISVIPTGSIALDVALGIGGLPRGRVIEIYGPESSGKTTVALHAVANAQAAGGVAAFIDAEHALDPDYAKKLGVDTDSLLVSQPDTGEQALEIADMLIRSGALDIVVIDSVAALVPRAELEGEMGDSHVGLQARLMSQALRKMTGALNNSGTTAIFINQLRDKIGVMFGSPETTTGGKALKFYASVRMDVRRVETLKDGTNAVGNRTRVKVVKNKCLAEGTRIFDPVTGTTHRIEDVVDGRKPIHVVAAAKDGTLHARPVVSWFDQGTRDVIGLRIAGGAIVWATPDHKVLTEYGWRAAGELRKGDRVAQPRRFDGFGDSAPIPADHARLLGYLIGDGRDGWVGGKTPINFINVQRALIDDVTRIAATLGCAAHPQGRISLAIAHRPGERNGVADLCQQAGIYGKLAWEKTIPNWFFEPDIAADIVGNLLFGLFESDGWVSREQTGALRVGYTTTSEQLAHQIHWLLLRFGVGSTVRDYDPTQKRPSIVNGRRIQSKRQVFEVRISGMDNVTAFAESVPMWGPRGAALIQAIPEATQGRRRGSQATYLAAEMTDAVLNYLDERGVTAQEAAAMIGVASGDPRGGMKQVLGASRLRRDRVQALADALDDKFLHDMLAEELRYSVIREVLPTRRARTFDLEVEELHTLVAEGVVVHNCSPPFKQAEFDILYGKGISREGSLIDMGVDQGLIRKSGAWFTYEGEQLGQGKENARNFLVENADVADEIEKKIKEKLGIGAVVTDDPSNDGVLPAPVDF
The experiment in a line: Fluorescence Cell-Free Homogeneous Dose Retest to Identify Inhibitors of RecA-Intein Splicing Activity. [Related pubchem assays (depositor defined):AID2097, AID2223, AID489010, AID492950]. The assay is classed as functional.

In assay [7] the target is Large T antigen (Simian virus 40, UniProt P03070). Type of assay: functional, Betapolyomavirus macacae.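 Note: Confirmatory-stage PubChem screen for compounds that inhibit SV40 T antigen.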
Large T antigen, sequence (P03070 whole entry): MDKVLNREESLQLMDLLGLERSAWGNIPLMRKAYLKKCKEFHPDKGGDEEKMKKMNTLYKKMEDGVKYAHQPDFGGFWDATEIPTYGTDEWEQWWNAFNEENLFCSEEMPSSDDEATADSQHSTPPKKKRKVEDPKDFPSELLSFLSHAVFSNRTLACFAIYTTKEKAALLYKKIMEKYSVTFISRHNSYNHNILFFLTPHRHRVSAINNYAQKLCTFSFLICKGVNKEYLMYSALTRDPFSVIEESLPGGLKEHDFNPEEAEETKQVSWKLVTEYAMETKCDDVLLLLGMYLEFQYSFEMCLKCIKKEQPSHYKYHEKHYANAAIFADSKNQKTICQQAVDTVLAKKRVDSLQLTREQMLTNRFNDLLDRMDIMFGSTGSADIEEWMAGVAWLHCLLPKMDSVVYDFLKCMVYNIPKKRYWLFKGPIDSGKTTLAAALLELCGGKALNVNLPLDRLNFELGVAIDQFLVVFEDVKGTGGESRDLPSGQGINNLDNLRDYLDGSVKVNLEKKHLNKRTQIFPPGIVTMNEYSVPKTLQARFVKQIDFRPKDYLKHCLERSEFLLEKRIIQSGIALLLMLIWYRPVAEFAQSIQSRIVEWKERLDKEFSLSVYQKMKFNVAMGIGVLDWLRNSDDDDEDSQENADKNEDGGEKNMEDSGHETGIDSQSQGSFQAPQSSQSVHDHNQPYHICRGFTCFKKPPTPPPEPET
The target of assay [8] is T4, RNA-binding protein pos-1 (Caenorhabditis elegans, UniProt G5EF15).
T4 sequence (G5EF15 whole entry): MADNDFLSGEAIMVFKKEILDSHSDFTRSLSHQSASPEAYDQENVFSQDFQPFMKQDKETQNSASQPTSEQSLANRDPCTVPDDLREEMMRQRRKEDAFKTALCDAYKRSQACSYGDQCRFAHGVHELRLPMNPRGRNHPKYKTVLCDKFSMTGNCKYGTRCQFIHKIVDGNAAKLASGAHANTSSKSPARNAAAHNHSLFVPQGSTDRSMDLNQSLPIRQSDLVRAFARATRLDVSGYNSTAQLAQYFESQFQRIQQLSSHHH
The assay is described as follows: disruptors of C. elegans POS-1 RNA interaction – biochemical, fluorescence polarization, dose response (AID 1964).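 Note: purified POS-1 fused to maltose binding protein made in E. coli; potency of compounds blocking POS-1 binding to fluorescent RNA.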 On the technique in general: Polarisation of emitted light reports the rotation of a fluorescent probe.

Assay [9] deals with T5, Zinc finger protein mex-5 (Caenorhabditis elegans, UniProt Q9XUB2).
T5 sequence (Q9XUB2 whole entry): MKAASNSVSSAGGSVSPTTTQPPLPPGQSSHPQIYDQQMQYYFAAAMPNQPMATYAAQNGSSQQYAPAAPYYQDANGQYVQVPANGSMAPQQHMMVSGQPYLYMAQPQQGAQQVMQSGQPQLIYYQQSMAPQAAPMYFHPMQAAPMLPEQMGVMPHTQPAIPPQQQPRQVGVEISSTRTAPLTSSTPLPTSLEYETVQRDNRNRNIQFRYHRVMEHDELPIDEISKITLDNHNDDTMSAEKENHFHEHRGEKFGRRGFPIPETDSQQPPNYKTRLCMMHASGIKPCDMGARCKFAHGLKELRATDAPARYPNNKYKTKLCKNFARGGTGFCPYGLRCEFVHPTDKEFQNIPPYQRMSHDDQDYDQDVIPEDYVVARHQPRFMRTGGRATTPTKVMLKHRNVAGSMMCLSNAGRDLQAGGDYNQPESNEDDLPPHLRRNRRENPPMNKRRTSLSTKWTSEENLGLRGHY
The experiment in a line: potency of MEX-5 RNA-binding blockers – biochemical, C. elegans, fluorescence polarization, dose response (AID 1960).

Assay [10] addresses T6, Replicative DNA helicase DnaB (Mycobacterium tuberculosis, UniProt P9WMR3).
T6 sequence (P9WMR3 whole entry): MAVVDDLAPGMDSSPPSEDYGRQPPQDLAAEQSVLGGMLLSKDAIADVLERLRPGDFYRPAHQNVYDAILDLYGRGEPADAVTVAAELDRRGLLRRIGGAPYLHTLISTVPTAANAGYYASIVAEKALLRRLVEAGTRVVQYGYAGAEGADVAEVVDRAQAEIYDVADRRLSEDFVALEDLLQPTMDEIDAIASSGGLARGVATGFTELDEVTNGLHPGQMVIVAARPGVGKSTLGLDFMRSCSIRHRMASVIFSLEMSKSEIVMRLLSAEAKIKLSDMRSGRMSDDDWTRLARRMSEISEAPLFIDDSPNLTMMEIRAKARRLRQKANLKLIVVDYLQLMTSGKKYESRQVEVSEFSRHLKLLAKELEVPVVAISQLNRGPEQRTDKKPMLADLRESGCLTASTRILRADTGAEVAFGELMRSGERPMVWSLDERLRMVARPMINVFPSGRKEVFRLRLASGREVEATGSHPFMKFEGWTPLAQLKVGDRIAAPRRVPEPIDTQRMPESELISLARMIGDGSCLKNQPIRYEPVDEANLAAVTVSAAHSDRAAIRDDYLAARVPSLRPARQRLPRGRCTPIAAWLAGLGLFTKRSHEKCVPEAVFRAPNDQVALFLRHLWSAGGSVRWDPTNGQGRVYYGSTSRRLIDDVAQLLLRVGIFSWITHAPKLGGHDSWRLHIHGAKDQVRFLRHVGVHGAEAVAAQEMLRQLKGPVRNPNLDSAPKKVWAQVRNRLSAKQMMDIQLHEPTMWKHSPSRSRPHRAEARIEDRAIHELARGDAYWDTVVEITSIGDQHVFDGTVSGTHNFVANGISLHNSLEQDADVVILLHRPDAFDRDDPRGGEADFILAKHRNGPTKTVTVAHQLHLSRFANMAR
The assay is described as follows: DnaB intein splicing inhibitors, dose response, biochemical, cell-free fluorescence (AID 449749). Type of assay: functional.

In assay [11] the target is T7, Small ubiquitin-related modifier 1 (Homo sapiens, UniProt P63165). The experiment in a line: SUMO1 protein-protein binding blockers, potency – biochemical, FRET, dose response (AID 624383). Type of assay: functional. Particulars: read-out: IC50_Mean.
T7 sequence (P63165 whole entry): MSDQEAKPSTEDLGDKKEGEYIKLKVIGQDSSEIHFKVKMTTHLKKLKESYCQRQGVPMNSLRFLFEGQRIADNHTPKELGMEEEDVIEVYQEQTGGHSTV
Assay [12] deals with T7, Small ubiquitin-related modifier 1. The assay is described as follows: SUMO1 protein interaction blockers, potency – biochemical, fluorescence polarization, uHTS hits, dose response (AID 624382). As to conditions: read-out: IC50_Mean. Type of assay: functional.
Assay [13] has as its target Cytochrome P450 2C9 (Homo sapiens, UniProt P11712).
Assay [14] has as its target Cytochrome P450 2D6 (Homo sapiens, UniProt P10635).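 Note: CYP2D6 member of a cytochrome P450 panel assay.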
For assay [15], the target named is Cytochrome P450 3A4 (Homo sapiens, UniProt P08684).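 Note: CYP3A4 tested as one member of a cytochrome P450 panel screen.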
Cytochrome P450 3A4, sequence (P08684 whole entry): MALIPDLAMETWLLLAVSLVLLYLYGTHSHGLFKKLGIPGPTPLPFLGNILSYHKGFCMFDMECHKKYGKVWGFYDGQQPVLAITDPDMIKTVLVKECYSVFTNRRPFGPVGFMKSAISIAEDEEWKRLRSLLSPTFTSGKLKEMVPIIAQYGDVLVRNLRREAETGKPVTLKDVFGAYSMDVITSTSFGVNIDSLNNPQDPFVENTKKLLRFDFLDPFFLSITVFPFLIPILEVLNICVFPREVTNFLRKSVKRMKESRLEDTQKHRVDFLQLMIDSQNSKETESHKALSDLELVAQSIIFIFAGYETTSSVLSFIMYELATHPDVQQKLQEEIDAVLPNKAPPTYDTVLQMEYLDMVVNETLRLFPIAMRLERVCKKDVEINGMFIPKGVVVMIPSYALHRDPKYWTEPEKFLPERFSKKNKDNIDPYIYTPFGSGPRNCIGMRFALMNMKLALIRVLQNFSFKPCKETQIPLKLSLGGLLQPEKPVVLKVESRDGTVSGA
The target in assay [16] is Cytochrome P450 2C19 (Homo sapiens, UniProt P33261). The assay is described as follows: Cytochrome panel assay with activity outcomes. Panel member name: p450-cyp2c19 Compounds with AC50 equal or less than 10 uM are considered active. The assay is classed as functional. As to conditions: read-out: AC50.
Cytochrome P450 2C19, sequence (P33261 whole entry): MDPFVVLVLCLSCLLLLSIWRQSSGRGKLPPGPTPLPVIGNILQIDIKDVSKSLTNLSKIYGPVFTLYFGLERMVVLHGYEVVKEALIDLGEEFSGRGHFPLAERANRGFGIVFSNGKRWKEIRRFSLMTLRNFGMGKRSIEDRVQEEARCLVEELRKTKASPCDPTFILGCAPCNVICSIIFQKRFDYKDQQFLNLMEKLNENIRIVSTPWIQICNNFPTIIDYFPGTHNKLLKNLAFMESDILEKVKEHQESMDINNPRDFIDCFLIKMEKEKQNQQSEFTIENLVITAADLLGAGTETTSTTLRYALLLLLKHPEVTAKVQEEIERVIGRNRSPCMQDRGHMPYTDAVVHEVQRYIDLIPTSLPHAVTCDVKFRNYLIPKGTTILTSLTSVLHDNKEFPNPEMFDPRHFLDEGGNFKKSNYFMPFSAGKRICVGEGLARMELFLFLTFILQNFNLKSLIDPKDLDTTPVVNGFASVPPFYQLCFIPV

Cytochrome P450 2C9, sequence (P11712 whole entry): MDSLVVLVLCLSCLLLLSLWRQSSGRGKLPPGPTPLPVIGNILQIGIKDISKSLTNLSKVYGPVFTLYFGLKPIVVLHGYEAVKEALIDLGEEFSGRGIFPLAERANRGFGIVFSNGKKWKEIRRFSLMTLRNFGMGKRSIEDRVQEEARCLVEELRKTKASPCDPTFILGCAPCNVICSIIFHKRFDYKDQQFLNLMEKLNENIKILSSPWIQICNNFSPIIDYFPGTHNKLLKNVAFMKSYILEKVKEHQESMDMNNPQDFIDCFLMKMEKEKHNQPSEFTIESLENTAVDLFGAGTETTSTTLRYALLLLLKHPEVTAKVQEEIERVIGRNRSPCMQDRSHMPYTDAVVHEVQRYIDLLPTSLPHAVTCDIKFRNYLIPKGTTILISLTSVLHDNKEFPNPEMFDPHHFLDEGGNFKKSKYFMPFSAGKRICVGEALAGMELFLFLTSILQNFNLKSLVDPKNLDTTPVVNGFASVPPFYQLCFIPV
Cytochrome P450 2D6, sequence (P10635 whole entry): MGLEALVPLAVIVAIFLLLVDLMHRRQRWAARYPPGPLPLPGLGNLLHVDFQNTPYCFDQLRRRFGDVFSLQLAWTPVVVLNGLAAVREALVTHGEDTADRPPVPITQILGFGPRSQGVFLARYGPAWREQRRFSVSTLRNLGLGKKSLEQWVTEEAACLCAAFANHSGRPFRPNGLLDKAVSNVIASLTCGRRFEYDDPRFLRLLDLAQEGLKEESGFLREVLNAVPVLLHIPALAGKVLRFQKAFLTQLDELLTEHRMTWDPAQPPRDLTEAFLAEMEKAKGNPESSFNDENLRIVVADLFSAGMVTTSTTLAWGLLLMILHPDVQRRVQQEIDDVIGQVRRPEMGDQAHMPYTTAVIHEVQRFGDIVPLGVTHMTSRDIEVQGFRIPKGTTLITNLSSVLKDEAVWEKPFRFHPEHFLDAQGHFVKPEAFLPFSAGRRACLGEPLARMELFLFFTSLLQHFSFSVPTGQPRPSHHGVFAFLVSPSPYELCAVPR

Consider `Cc1cc(C(=O)Nc2ccc(N3CCCCC3)cc2)no1`, for which the AC50 was 13.3 µM (active) in [1] and 13.1 µM (active) in assay [2].
`COc1cc(SC)ccc1C(=O)Nc1ccc(Br)cn1`: the AC50 in [3] is 7.36 µM (active).
`C[C@@H]1CN([C@@H](C)CO)S(=O)(=O)c2ccc(C#CC3CCCCC3)cc2O[C@H]1CN(C)Cc1cccnc1`: in assay [4], the AC50 was 15.1 µM (active).
Consider `CCn1c(C)c(C)c2cc(C(=O)NCCN3CCOCC3)ccc21`, for which the AC50 in assay [4] is 25.5 µM (active).
Regarding `COc1cccc2c(=O)n(CC(=O)N3CCCCCC3)ccc12`, in assay [5], the IC50 is 17.6 µM (active).
`COc1cc(C2C(C#N)=C(N)Oc3[nH]nc(-c4cccnc4)c32)cc(Br)c1O` (stereo not given): the figures for the EC50 in assay [6], in assay [8] and in assay [9] were 2.06 µM (active), > 300 µM (not active) and > 300 µM (not active), respectively. In assay [7], the IC50 is 57 µM (active). In addition, the AC50 in assay [10] is 5.65 µM (active).
In the case of `CC(=O)Nc1ccc(S(=O)(=O)N2CCn3cccc3C2C)cc1` (stereo not given), the concentration at half-maximal activity (AC50) in assay [3] is 28.6 µM (active).
With `COc1cc(CN2C[C@@H]3N[C@H](C2)[C@H]3c2ccc(-c3cccc(OC)c3)cc2)cc(OC)c1`, the concentration at half-maximal activity (AC50) in [4] is 24.5 µM (active).
Regarding `CC(CC(=O)OCC(=O)Nc1ccc2[nH]c(O)nc2c1)c1ccccc1` (stereo not given), the figures for the IC50 in assay [11] and in assay [12] were 21 µM (inactive) and > 66.6 µM (inactive), respectively.
As to `CCC(CO)Oc1cc(NC(=O)c2ccccc2F)c2ncn(C(C)C)c2c1` (stereo not given), the results for the IC50 in assay [11] and in assay [12] were 12.2 µM (active) and > 66.6 µM (inactive), respectively.
Regarding `O=C(O)C1CCCCC1C(=O)Nc1ccc2c(c1)OCCO2` (stereo not given), in assay [5], the IC50 is 32.9 µM (active).
With `COc1ccccc1NC(=O)CC1COc2ccccc2O1` (stereo not given), in assay [5], the IC50 was 5.29 µM (active). The AC50 in assay [13] is 5.62 µM (inconclusive); in assay [14], 12.6 µM (inconclusive); in [15], 14.1 µM (inconclusive).
Take `O=C(O)C1CCCCC1C(=O)Nc1cccc(Cl)c1Cl` (stereo not given): the IC50 in assay [5] is 13.5 µM (active).
With `O=C(NCc1ccccc1)C(=O)Nc1cccc(C(=O)O)c1`, the AC50 in assay [3] was 4.85 µM (active).
For the molecule `O=C(N/N=C/c1ccncc1)c1cc2c(ccc3ccccc32)o1`, the IC50 in assay [11] was 100 µM (inactive); in assay [12], > 66.6 µM (inactive). In addition, the half-maximal activity concentration (AC50) in assay [16] is 8.91 µM (inconclusive); in [13], 0.794 µM (inconclusive).
Turning to `CCC(=O)Nc1cc2nn(-c3ccc(C)cc3)nc2cc1C`, the AC50 in assay [3] is 4.15 µM (active).
Consider `O=C(Nc1c(C(=O)O)oc2ccc(Br)cc12)c1ccccc1`, for which the IC50 in assay [5] is 5.42 µM (active).
